From patent US8999976B2, “Modulators of cystic fibrosis transmembrane conductance regulator” (Vertex Pharmaceuticals Incorporated, priority 2008, dated 2015)
Counter-ions that a name gives are not always drawn.

Target: T1, ΔF508-CFTR (Homo sapiens, UniProt P13569, DEL508-508)
T1 construct: expressed in transfected cells
Assay: Membrane potential optical assay for potentiators of ΔF508-CFTR (FLIPR III, voltage sensing dyes)
Assay type: cell-based
Details: for Emax: NIH3T3, 100% efficacy is the maximum response obtained with 4-methyl-2-(5-phenyl-1H-pyrazol-3-yl)phenol, ΔF508 CFTR NIH 3T3 cells; for EC50: temperature-corrected ΔF508 CFTR NIH 3T3 cells, forskolin activation
From the text: The assay utilizes fluorescent voltage sensing dyes to measure changes in membrane potential using a fluorescent plate reader (e.g., FLIPR III, Molecular Devices, Inc.) as a readout for increase in functional ΔF508-CFTR in NIH 3T3 cells.
To identify potentiators of ΔF508-CFTR, a double-addition HTS assay format was developed. This HTS assay utilizes fluorescent voltage sensing dyes to measure changes in membrane potential on the FLIPR III as a measurement for increase in gating (conductance) of ΔF508 CFTR in temperature-corrected ΔF508 CFTR NIH 3T3 cells.
Solutions • Bath Solution #1: (in mM) NaCl 160, KCl 4.5, CaCl2 2, MgCl2 1, HEPES 10, pH 7.4 with NaOH. • Chloride-Free Bath Solution: Chloride Salts in Bath Solution #1 are Substituted with Gluconate Salts.
NIH3T3 mouse fibroblasts stably expressing ΔF508-CFTR are used for optical measurements of membrane potential. The cells are maintained at 37° C. in 5% CO2 and 90% humidity in Dulbecco's modified Eagle's medium supplemented with 2 mM glutamine, 10% fetal bovine serum, 1×NEAA, β-ME, 1×pen/strep, and 25 mM HEPES in 175 cm^2 culture flasks. For all optical assays, the cells were seeded at ˜20,000/well in 384-well matrigel-coated plates and cultured for 2 hrs at 37° C. before culturing at 27° C. for 24 hrs. for the potentiator assay. For the correction assays, the cells are cultured at 27° C. or 37° C. with and without compounds for 16-24 hours. Electrophysiological Assays for assaying ΔF508-CFTR modulation properties of compounds.

T1 sequence (P13569 with tags, fused parts or gaps DEL508-508): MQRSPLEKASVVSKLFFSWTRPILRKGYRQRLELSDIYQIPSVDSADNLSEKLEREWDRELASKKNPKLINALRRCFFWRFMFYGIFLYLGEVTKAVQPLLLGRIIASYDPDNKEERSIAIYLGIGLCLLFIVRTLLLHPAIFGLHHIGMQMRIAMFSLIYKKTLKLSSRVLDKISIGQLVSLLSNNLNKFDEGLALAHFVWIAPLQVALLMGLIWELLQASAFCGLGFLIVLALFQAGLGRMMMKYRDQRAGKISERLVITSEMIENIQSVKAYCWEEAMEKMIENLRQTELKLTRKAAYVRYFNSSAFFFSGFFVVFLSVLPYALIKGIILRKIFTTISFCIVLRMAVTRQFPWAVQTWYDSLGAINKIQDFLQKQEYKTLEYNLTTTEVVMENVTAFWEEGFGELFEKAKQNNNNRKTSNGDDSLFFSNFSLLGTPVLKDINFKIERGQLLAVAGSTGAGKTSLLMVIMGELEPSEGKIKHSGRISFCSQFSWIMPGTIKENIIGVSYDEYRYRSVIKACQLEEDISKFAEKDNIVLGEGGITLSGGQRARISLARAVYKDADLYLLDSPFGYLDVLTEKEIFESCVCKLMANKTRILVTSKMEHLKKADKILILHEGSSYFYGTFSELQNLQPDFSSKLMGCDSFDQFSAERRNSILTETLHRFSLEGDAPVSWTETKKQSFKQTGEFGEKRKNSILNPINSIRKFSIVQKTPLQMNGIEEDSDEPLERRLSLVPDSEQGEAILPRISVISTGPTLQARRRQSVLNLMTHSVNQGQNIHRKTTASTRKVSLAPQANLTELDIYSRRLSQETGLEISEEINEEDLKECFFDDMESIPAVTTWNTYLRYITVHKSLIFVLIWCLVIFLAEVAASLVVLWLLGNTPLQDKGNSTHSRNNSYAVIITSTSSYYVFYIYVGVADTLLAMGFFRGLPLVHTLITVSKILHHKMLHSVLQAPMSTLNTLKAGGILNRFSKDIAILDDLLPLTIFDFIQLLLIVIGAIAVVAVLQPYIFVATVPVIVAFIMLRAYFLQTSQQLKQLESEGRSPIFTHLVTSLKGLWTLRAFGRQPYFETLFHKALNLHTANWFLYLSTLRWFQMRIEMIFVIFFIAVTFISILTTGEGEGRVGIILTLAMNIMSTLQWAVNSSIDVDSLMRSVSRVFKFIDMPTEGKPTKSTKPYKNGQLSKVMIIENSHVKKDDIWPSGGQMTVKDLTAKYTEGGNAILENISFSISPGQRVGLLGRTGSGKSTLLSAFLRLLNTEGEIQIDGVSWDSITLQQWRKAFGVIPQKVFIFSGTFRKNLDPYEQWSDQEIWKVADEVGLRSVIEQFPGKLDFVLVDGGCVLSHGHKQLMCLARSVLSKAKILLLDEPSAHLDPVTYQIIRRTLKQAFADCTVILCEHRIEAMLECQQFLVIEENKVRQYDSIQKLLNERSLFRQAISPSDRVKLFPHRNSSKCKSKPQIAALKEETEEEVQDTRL

Row | Compound | Emax [%] | EC50 [µM]
1 | NCC#Cc1cc(C2CCCC2)c(O)cc1NC(=O)C1CNc2cc(OC(F)(F)F)ccc2O1 (centres unmarked) [Compound 40] | 25 to 100 | < 5
2 | N#Cc1ccc2c(c1)NCC(C(=O)Nc1cc(O)c(C3CCCC3)cc1C1CCNCC1)O2 (centres unmarked) [Compound 113] | < 25 | 5 to 20
3 | CN(C)CC#Cc1cc(C2CCCC2)c(O)cc1NC(=O)[C@H]1CNc2ccccc2O1 [Compound 84] | 25 to 100 | < 5
4 | O=C(Nc1cc(O)c(C2CCCC2)cc1C(F)(F)F)[C@@H]1CNc2cc(OC(F)(F)F)ccc2O1 [Compound 54] | 25 to 100 | < 5
5 | O=C(Nc1cc(O)c(C2CCCC2)cc1Cl)C1CNc2ccc(F)cc2O1 (centres unmarked) [Compound 103] | 25 to 100 | < 5
6 | CCc1ccc(NC(=O)C2CNc3cc(OC(F)(F)F)ccc3O2)c(C#CCN(C)C)c1 (centres unmarked) [Compound 44] | > 100 | < 5
7 | Cc1ccc(NC(=O)C2CNc3cc(OC(F)(F)F)ccc3O2)c(C#CCN(C)C)n1 (centres unmarked) [Compound 91] | 25 to 100 | < 5
8 | CC(C)(C)c1ccc(NC(=O)C2CNc3ccccc3S2)cc1O (centres unmarked) [Compound 120, N-(4-tert-butyl-3-hydroxy-phenyl)-3,4-dihydro-2H-1,4-benzothiazine-2-carboxamide] | 25 to 100 | < 5
9 | CCN1CCN(c2cc(C3CCCC3)c(O)cc2NC(=O)C2CNc3cc(C#N)ccc3O2)CC1 (centres unmarked) [Compound 10] | < 25 | 5 to 20
10 | CN(C(=O)C1CNc2ccccc2O1)c1ccc(C(C)(C)C)c(O)c1 (centres unmarked) [Compound 115, N-(4-tert-butyl-3-hydroxyphenyl)-N-methyl-3,4-dihydro-2H-benzo[b][1,4]oxazine-2-carboxamide hydrochloride] | 25 to 100 | < 5
11 | O=C(Nc1cc(O)c(C2CCCC2)cc1C(F)(F)F)[C@H]1CNc2cc(OC(F)(F)F)ccc2O1 [Compound 32] | 25 to 100 | < 5
12 | CC(C)(C)c1ccc(NC(=O)C2CNc3ccc(F)cc3O2)cc1O (centres unmarked) [Compound 35] | 25 to 100 | < 5
13 | O=C(Nc1ccc(OC(F)(F)F)c(O)c1)C1CNc2ccc(F)cc2O1 (centres unmarked) [Compound 47] | 25 to 100 | < 5
14 | CCc1cc(F)c(NC(=O)C2CNc3ccc(F)cc3O2)cc1O (centres unmarked) [Compound 20] | 25 to 100 | < 5
15 | COc1cc(NC(=O)C2CNc3ccc(F)cc3O2)c(Cl)cc1C(C)(C)O (centres unmarked) [Compound 82] | 25 to 100 | < 5
16 | CC[N+](CC)(CC)CC#Cc1cc(C)ccc1NC(=O)C1CNc2cc(OC(F)(F)F)ccc2O1 (centres unmarked) [Compound 102] | 25 to 100 | 5 to 20
17 | CC1CCN(Cc2cc(C3CCCC3)c(O)cc2NC(=O)C2CNc3ccccc3O2)CC1 (centres unmarked) [Compound 46] | > 100 | < 5
18 | CC(C)(C)c1cc(C2CCCC2)c(O)cc1NC(=O)C1CNc2cc(S(C)(=O)=O)ccc2O1 (centres unmarked) [Compound 66] | 25 to 100 | < 5
19 | CC1(c2cc(F)c(NC(=O)C3CNc4ccccc4O3)cc2O)CCCCC1 (centres unmarked) [Compound 99] | 25 to 100 | < 5
20 | Cc1cc(N2C3CCC2CC3)ncc1NC(=O)C1CNc2ccc(F)cc2O1 (centres unmarked) [Compound 56] | 25 to 100 | 5 to 20
21 | CC(C)Oc1c(O)cccc1NC(=O)C1CNc2ccc(F)cc2O1 (centres unmarked) [Compound 112] | 25 to 100 | 5 to 20
22 | N#Cc1ccc2c(c1)NCC(C(=O)Nc1cc(O)c(C3CCCC3)cc1CN1CCNCC1)O2 (centres unmarked) [Compound 51, 6-cyano-N-(4-cyclopentyl-5-hydroxy-2-(piperazin-1-ylmethyl)phenyl)-3,4-dihydro-2H-benzo[b][1,4]oxazine-2-carboxamide] | 25 to 100 | 5 to 20
23 | CC1(c2cc(F)c(NC(=O)C3CNc4ccc(F)cc4O3)cc2O)CCCCC1 (centres unmarked) [Compound 68] | 25 to 100 | < 5
24 | CC(C)c1ccc(NC(=O)C2CNc3cc(Cl)ccc3O2)c(C#CCN(C)C)c1 (centres unmarked) [Compound 60] | 25 to 100 | < 5
25 | Cc1ccc(NC(=O)C2CNc3cc(OC(F)(F)F)ccc3O2)c(C#CCN2CCN(C)CC2)c1 (centres unmarked) [Compound 62] | 25 to 100 | < 5
26 | O=C(Nc1cc(O)c(C2CCCC2)cc1CN1CCCCC1)C1CNc2ccccc2O1 (centres unmarked) [Compound 3] | 25 to 100 | < 5
27 | Cc1cc2c(cc1F)NCC(C(=O)Nc1cc(O)c(C3CCCC3)cc1C#CCN(C)C)O2 (centres unmarked) [Compound 124] | 25 to 100 | < 5
28 | CN(C)CC#Cc1cc(F)ccc1NC(=O)C1CNc2cc(C#N)ccc2O1 (centres unmarked) [Compound 114] | 25 to 100 | 5 to 20

Row | Compound | Emax [%] | EC50 [µM]
29 | O=C(Nc1cc(O)cc(C(F)(F)F)c1)C1CNc2ccccc2O1 (centres unmarked) [Compound 57] | 25 to 100 | < 5
30 | O=C(Nc1cc(O)c(C2CCCC2)cc1C(F)(F)F)[C@H]1CNc2cc(F)ccc2O1 [Compound 93] | 25 to 100 | < 5
31 | CS(=O)(=O)c1cc(C2CCCC2)c(O)cc1NC(=O)C1CNc2cc(OC(F)(F)F)ccc2O1 (centres unmarked) [Compound 105] | > 100 | 5 to 20
32 | CN1CCN(Cc2cc(C3CCCC3)c(O)cc2NC(=O)C2CNc3ccccc3O2)CC1 (centres unmarked) [Compound 52, N-(4-cyclopentyl-5-hydroxy-2-((4-methylpiperazin-1-yl)methyl)phenyl)-3,4-dihydro-2H-benzo[b][1,4]oxazine-2-carboxamide] | 25 to 100 | < 5
33 | Cc1cc(C#CCN(C)C)c(NC(=O)C2CNc3cc(OC(F)(F)F)ccc3O2)cc1C (centres unmarked) [Compound 127] | 25 to 100 | < 5
34 | Cc1ccc(NC(=O)C2CNc3cc(OC(F)(F)F)ccc3O2)c(C#CCN2CCC(O)CC2)c1 (centres unmarked) [Compound 64] | 25 to 100 | < 5
35 | CC(C)(C)c1cc(C2CCCC2)c(O)cc1NC(=O)[C@H]1CNc2cc(C#N)ccc2O1 [Compound 13] | > 100 | < 5
36 | O=C(Nc1cc(O)c(C2CCCC2)cc1F)C1CNc2ccc(F)cc2O1 (centres unmarked) [Compound 61] | 25 to 100 | < 5
37 | Cc1cc(F)c(NC(=O)C2CNc3ccccc3O2)cc1O (centres unmarked) [Compound 55] | 25 to 100 | < 5
38 | Cc1ccc(NC(=O)C2CNc3cc(OC(F)(F)F)ccc3O2)c(C#CCN2CCC(N)CC2)c1 (centres unmarked) [Compound 101] | < 25 | 5 to 20
39 | Cc1ccc(NC(=O)C2CNc3cc(OC(F)(F)F)ccc3O2)c(C#CCN2CCC(F)(F)C2)c1 (centres unmarked) [Compound 45] | 25 to 100 | < 5
40 | CN(C)CC#Cc1cc(C2CCCC2)c(O)cc1NC(=O)[C@@H]1CNc2cc(OC(F)(F)F)ccc2O1 [Compound 65] | > 100 | < 5
41 | COc1cc(NC(=O)C2CNc3ccc(F)cc3O2)ccc1C(C)(C)C (centres unmarked) [Compound 94] | 25 to 100 | < 5
42 | Cc1ccc(NC(=O)C2CNc3cc(OC(F)(F)F)ccc3O2)c(C#CCN2CCCC2)c1 (centres unmarked) [Compound 73] | 25 to 100 | < 5
43 | CC1(c2cc(F)c(NC(=O)[C@@H]3CNc4ccccc4O3)cc2O)CCCCC1 [Compound 19] | 25 to 100 | < 5
44 | Cc1ccc(NC(=O)C2CNc3cc(Cl)ccc3O2)c(C#CCN(C)C)c1 (centres unmarked) [Compound 67] | 25 to 100 | < 5
45 | Cc1ccc2c(c1)OC(C(=O)Nc1cc(O)c(C)cc1F)CN2 (centres unmarked) [Compound 86] | 25 to 100 | < 5
46 | Cc1ccc(NC(=O)C2CNc3cc(OC(F)(F)F)ccc3O2)c(C#CCN(C)C)c1 (centres unmarked) [Compound 26] | 25 to 100 | < 5
47 | O=C(Nc1ccc(O)c(OC(F)(F)F)c1)C1CNc2ccc(F)cc2O1 (centres unmarked) [Compound 109] | 25 to 100 | 5 to 20
48 | COc1cc(NC(=O)C2CNc3ccccc3O2)ccc1-n1c(C)ccc1C (centres unmarked) [Compound 28] | 25 to 100 | 5 to 20
49 | Cc1ccc(NC(=O)C2CNc3cc(OC(F)(F)F)ccc3O2)c(C#CCN2CCNC(=O)C2)c1 (centres unmarked) [Compound 63] | 25 to 100 | < 5
50 | Cc1ccc(NC(=O)C2CNc3cc(C)ccc3O2)c(C#CCN(C)C)c1 (centres unmarked) [Compound 48] | 25 to 100 | < 5
51 | Cc1cnc(NC(=O)C2CNc3cc(OC(F)(F)F)ccc3O2)c(C#CCN(C)C)c1 (centres unmarked) [Compound 41] | 25 to 100 | < 5
52 | O=C(Nc1cc(O)c(C2CCCC2)cc1C(F)(F)F)C1CNc2ccc(F)cc2O1 (centres unmarked) [Compound 31] | 25 to 100 | < 5
53 | CC1(c2cc(F)c(NC(=O)[C@H]3CNc4ccccc4O3)cc2O)CCCCC1 [Compound 80] | 25 to 100 | < 5
54 | CC(C)(C)c1ccc(NC(=O)C2CNc3ccccc3[S+]2[O-])cc1O (centres unmarked) [Compound 125, N-(4-tert-butyl-3-hydroxy-phenyl)-1-oxo-3,4-dihydro-2H-benzo[b][1,4]thiazine-2-carboxamide] | < 25 | < 5
55 | CN(C)CC#Cc1cc(C2CCCC2)c(O)cc1NC(=O)C1CNc2cc(C#N)ccc2O1 (centres unmarked) [Compound 34] | 25 to 100 | < 5
